Measured values from PMC3533232, “Isolation of the bioactive peptides CCHamide-1 and CCHamide-2 from Drosophila and their putative role in appetite regulation as ligands for G protein-coupled receptors” (Frontiers in Endocrinology, 2012).
Where a SMILES comes first, the peptide text is derived from it. Bridges are numbered along the chain shown (N, C = ends). Where no end group is shown, it is not given here.

Columns and labels:
[1] = system: CHO cells transfected with the vector alone; experiment: [Ca2+]i response in CHO cells transfected with the vector alone; format: cell-based, Chinese hamster; conditions: data not shown
Procedure: (§1) An assay system using CG30106- or CG14593-expressing cells was prepared as previously described ([Ida et al., 2011a],[b]). The full-length cDNA of Drosophila CG30106 (GenBank accession number: NM_136355; residues […] to 1700) and CG14593 (GenBank accession number: NM_136355; residues 656–2185) was obtained by RT-PCR using Drosophila cDNA as the template. The sense and antisense primers for CG30106 were 5′-[…]-3′ and 5′-[…]-3′, respectively. The sense and antisense primers for CG14593 were 5′-[…]-3′ and 5′-[…]-3′, respectively. The amplified cDNA was ligated into the pcDNA3.1 vector (Invitrogen). The expression vector, i.e., CG30106 or CG14593-pcDNA3.1, was transfected into Chinese hamster ovary (CHO) cells by using with Fugene6 transfection reagent (Roche), and stably expressing cells were selected using 1 mg/ml G418. […] Changes in intracellular Ca^2^+ concentrations ([Ca^2^+]i) were measured using the FlexStation 3 fluorometric imaging plate reader to conduct high-throughput measurements of intracellular Ca^2^+ concentration (Molecular Devices, CA, USA; [Marshall et al., 2005]). […] The cells were incubated with 100 μl of Calcium 4 assay kit reagent (Molecular Devices) for 1 h, and then 50 μl of each sample was added to the CHO-CG30106 or CHO-CG14593 cells to induce changes in fluorescence. The maximum [Ca^2^+]i changes were recorded. […]

blowfly Phormia regina = experiment: Proboscis extension reflex (PER) test; format: in vivo; conditions: 30 min after injection of 10 pmol (1 μl) into the shoulder, linger solution control 236 mM, p < 0.05, five sets of 20 flies
Procedure: The proboscis extension reflex (PER) test and feeding test were performed for the blowfly Phormia regina as previously described ([Nisimura et al., 2005]; [Ida et al., 2011a]). CCHamide-2 was dissolved in blowfly linger solution at a concentration of […]. Twenty flies were secured by their wings using washing pins, and the first PER test was performed by using 12 steps of sucrose concentrations that had been prepared by twofold serial dilutions in distilled water, beginning from a sucrose concentration of 1 M. We investigated the PER in three different groups of 20 flies each: no injection, fly linger injection, and fly linger plus peptide injection. The PER tests were performed 30 min after 1 μl of blowfly linger solution with or without peptide was injected into the shoulder of each fly. We repeated five sets of PER tests each, in which 20 flies were used in each batch.
Results are presented as the mean ± SEM for each group. To compare the PER thresholds among the three groups, we used a non-parametric Steel–Dwass test. The criterion for statistical significance was p < 0.05 for all tests. The statistical software program GraphPad PRISM (GraphPad software, CA, USA) was used for analyses.
In contrast, no difference was observed between the mean PER threshold without any injection and 30 min after linger solution injection (222 and 236 mM, respectively, p > 0.05). […]

flies = conditions: administration of CCHamide-2; ref Hiraguchi et al., paper in preparation; cited from earlier work
Source text: In addition, CCHamide-1 and CCHamide-2 have been detected in the nervous system and midgut in a mass spectrometry study performed by [Reiher et al. (2011)]. […] It is generally accepted that brain–gut peptides regulate feeding behavior in mammals ([Williams et al., 2001]). These peptides include neuropeptide Y, peptide YY, gastrin-releasing peptide, vasoactive inte ...

CG14593 = target: T1, CG14593 (Drosophila melanogaster, UniProt Q4V622); experiment: [Ca2+]i assay in CHO-CG14593 cells (FlexStation 3); format: cell-based; conditions: synthetic peptide not generated; predicted from amount of purified peptide and specific activity
T1 construct: expressed in transfected cells
T1 sequence (Q4V622 1-489): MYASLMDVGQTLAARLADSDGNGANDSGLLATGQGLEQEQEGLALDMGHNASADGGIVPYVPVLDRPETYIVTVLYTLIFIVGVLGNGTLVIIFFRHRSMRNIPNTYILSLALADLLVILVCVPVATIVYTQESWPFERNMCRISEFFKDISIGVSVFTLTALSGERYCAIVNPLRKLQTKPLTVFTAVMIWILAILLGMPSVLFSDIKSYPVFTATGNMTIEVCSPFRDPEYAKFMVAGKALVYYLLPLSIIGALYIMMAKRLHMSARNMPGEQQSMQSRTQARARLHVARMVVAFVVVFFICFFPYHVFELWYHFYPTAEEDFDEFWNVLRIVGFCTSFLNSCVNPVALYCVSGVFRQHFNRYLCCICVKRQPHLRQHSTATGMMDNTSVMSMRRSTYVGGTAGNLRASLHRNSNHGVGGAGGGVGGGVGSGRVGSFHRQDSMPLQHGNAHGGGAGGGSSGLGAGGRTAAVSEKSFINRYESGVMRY
Procedure: as §1

Compound | [Ca2+]i response in vector-only CHO cells [1] | mean PER threshold (sucrose concentration at which 50% of flies show PER) (blowfly Phormia regina) [mM] | sucrose intake (flies) | predicted potency for activating CG14593 (CG14593)
CC(C)C[C@@H]1NC(=O)[C@@H](NC(=O)[C@@H](N)CO)CSSC[C@@H](C(=O)N[C@@H](Cc2c[nH]c3ccccc23)C(=O)NCC(=O)N[C@@H](C)C(=O)N[C@@H](Cc2c[nH]cn2)C(N)=O)NC(=O)[C@H](CO)NC(=O)[C@H](Cc2c[nH]cn2)NC(=O)CNC(=O)[C@H](Cc2ccc(O)cc2)NC(=O)[C@H](CCC(=O)O)NC1=O [CCHamide-1] (H-SCLEYGHSCWGAH-NH2; disulfide 2-9) | Neither CCHamide-2 nor CCHamide-1 induced a response | – | – | –
CC(C)[C@@H]1NC(=O)[C@H](Cc2c[nH]cn2)NC(=O)CNC(=O)[C@H](Cc2ccc(O)cc2)NC(=O)[C@H](C)NC(=O)[C@H](CCC(N)=O)NC(=O)[C@@H](NC(=O)CN)CSSC[C@@H](C(=O)N[C@@H](Cc2ccc(O)cc2)C(=O)NCC(=O)NCC(=O)N[C@@H](Cc2c[nH]cn2)C(N)=O)NC1=O [CCHamide-2] (H-GCQAYGHVCYGGH-NH2; disulfide 2-9) | Neither CCHamide-2 nor CCHamide-1 induced a response | 77.2 | significantly increased | –
KKGCQAYGHVCYGGH-NH2 (disulfide 4-11 (inferred); N-terminus assumed; SMILES CC(C)[C@@H]1NC(=O)[C@H](Cc2c[nH]cn2)NC(=O)CNC(=O)[C@H](Cc2ccc(O)cc2)NC(=O)[C@H](C)NC(=O)[C@H](CCC(N)=O)NC(=O)[C@@H](NC(=O)CNC(=O)[C@H](CCCCN)NC(=O)[C@@H](N)CCCCN)CSSC[C@@H](C(=O)N[C@@H](Cc2ccc(O)cc2)C(=O)NCC(=O)NCC(=O)N[C@@H](Cc2c[nH]cn2)C(N)=O)NC1=O) [N-terminal extended form of CCHamide-2 purified from flies; not synthesized] | – | – | – | high potency similar to that of other forms of CCHamide-2
